In ChEMBL document CHEMBL1201862, “PubChem BioAssay data set” (2004):
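Each compound was tested at five concentrations against cells in 96-well plates for 48 hours. GI50 is the concentration that inhibits growth by half.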 Active and inactive are the calls of the source. Cut-off read from the data, not from the text of the source: active = GI50 up to about 1.1 µM and inactive = higher.

Tests used:
Experiment in all cases: inhibition of tumour cell growth, NCI panel, 48 h
HOP-92 = system: HOP-92
NCI-H460 = system: NCI-H460
HCC 2998 = system: HCC 2998
KM12 = system: KM12
HCT-116 = system: HCT-116
DU-145 = system: DU-145
Hs-578T = system: Hs-578T
PC-3 = system: PC-3
TK-10 = system: TK-10
A549 = system: A549
CAKI-1 = system: CAKI-1
RPMI-8226 = system: RPMI-8226
K562 = system: K562
UACC-62 = system: UACC-62
SN12C = system: SN12C
NCI/ADR-RES = system: NCI/ADR-RES
OVCAR-4 = system: OVCAR-4
OVCAR-8 = system: OVCAR-8
HCT-15 = system: HCT-15
SF-539 = system: SF-539

Structure (SMILES) | GI50 (HOP-92) | GI50 (NCI-H460) | GI50 (HCC 2998) | GI50 (KM12) | GI50 (HCT-116) | GI50 (DU-145) | GI50 (Hs-578T) | GI50 (PC-3) | GI50 (TK-10) | GI50 (A549) | GI50 (CAKI-1) | GI50 (RPMI-8226) | GI50 (K562) | GI50 (UACC-62) | GI50 (SN12C) | GI50 (NCI/ADR-RES) | GI50 (OVCAR-4) | GI50 (OVCAR-8) | GI50 (HCT-15) [µM] | GI50 (SF-539)
CC(O)CCC(=O)c1ccoc1 (stereo not given) | 2490 µM (inactive) | 7230 µM (inactive) | 8610 µM (inactive) | 7710 µM (inactive) | 5740 µM (inactive) | 8200 µM (inactive) | 5120 µM (inactive) | 6120 µM (inactive) | 6980 µM (inactive) | 3940 µM (inactive) | 2730 µM (inactive) | 3740 µM (inactive) | 6180 µM (inactive) | 5210 µM (inactive) | 7180 µM (inactive) | 4990 µM (inactive) | 5110 µM (inactive) | 6840 µM (inactive) | 7660 | 9930 µM (inactive)
O=C(c1c(F)c(F)c(F)c(F)c1F)c1c(F)c(F)c(F)c(F)c1F | 1.83 µM (inactive) | 2.25 µM (inactive) | 1.67 µM (inactive) | 0.535 µM (active) | 1.51 µM (inactive) | 1.96 µM (inactive) | 2.69 µM (inactive) | 1.62 µM (inactive) | 1.19 µM (inactive) | 3.53 µM (inactive) | 0.914 µM (active) | 0.0528 µM (active) | 0.316 µM (active) | 1.92 µM (inactive) | 1.87 µM (inactive) | 3.13 µM (inactive) | 1.75 µM (inactive) | 1.5 µM (inactive) | 1.55 | 1.09 µM (active)
COc1cc(C2c3cc4c(cc3OC(N3CCNCC3)C2C)OCO4)cc(OC)c1OC (stereo not given) | 0.748 µM (active) | 0.94 µM (active) | 2.26 µM (inactive) | 0.441 µM (active) | 0.56 µM (active) | 0.594 µM (active) | 0.17 µM (active) | 0.456 µM (active) | 20.7 µM (inactive) | 1.79 µM (inactive) | 0.476 µM (active) | 0.804 µM (active) | 0.413 µM (active) | 0.516 µM (active) | 2.59 µM (inactive) | 0.597 µM (active) | 1.66 µM (inactive) | 2.93 µM (inactive) | 0.893 | 0.344 µM (active)
C=C1CC(COc2ccc3c(C)c(C)c(=O)oc3c2C)(c2ccccc2)OC1=O (stereo not given) | 1.45 µM (inactive) | 6.01 µM (inactive) | 2.48 µM (inactive) | 2.86 µM (inactive) | 1.41 µM (inactive) | 2.07 µM (inactive) | 4.26 µM (inactive) | 1.73 µM (inactive) | 1.45 µM (inactive) | 11.7 µM (inactive) | 1.5 µM (inactive) | 0.486 µM (active) | 0.671 µM (active) | 1.69 µM (inactive) | 3.39 µM (inactive) | 2.7 µM (inactive) | 2.32 µM (inactive) | 1.72 µM (inactive) | 1.88 | 2.02 µM (inactive)
FC(F)(F)c1ccccc1C1SCC2=Nc3ccccc3CN21 (stereo not given) | 17 µM (inactive) | 15.7 µM (inactive) | 14.5 µM (inactive) | 12.9 µM (inactive) | 11.1 µM (inactive) | 12.8 µM (inactive) | 12.3 µM (inactive) | 14.1 µM (inactive) | 14.4 µM (inactive) | 14.5 µM (inactive) | 24.9 µM (inactive) | 24.8 µM (inactive) | 21.8 µM (inactive) | 13.2 µM (inactive) | 27 µM (inactive) | 18.3 µM (inactive) | 15.4 µM (inactive) | 16.9 µM (inactive) | 14.1 | 10.8 µM (inactive)
O=C1CSC(c2cc3cc(Br)ccc3nc2Cl)N1c1ccc(Cl)cc1 (stereo not given) | 37.2 µM (inactive) | 16.1 µM (inactive) | 19.2 µM (inactive) | 13 µM (inactive) | 23.6 µM (inactive) | 34.4 µM (inactive) | 35.9 µM (inactive) | 41.2 µM (inactive) | 29.6 µM (inactive) | 28.1 µM (inactive) | 18.5 µM (inactive) | 25.4 µM (inactive) | 7.33 µM (inactive) | 5.87 µM (inactive) | 20.2 µM (inactive) | 20.5 µM (inactive) | 23.2 µM (inactive) | 44.1 µM (inactive) | 16.8 | 17.7 µM (inactive)
Cc1ccc(N2C(=O)C(O)=C(C(=O)C(C)(C)C)C2c2ccc([N+](=O)[O-])cc2)cc1 (stereo not given) | 13.7 µM (inactive) | 9.27 µM (inactive) | 17.7 µM (inactive) | 16.7 µM (inactive) | 16 µM (inactive) | 28.4 µM (inactive) | 16.9 µM (inactive) | 29.9 µM (inactive) | 36.2 µM (inactive) | 23.6 µM (inactive) | 3.94 µM (inactive) | 10.9 µM (inactive) | 23.9 µM (inactive) | 14.9 µM (inactive) | 15.4 µM (inactive) | 19.5 µM (inactive) | 6.71 µM (inactive) | 18.9 µM (inactive) | 16.2 | 24.9 µM (inactive)
